Measured values: patent publication US6365360B1, “Methods of identifying modulators of human IP prostaglandin receptor” (Merck Frosst Canada & Co., priority 1993, dated 2002)

Tests used:
[1] = target: T1, human prostaglandin I2 (IP) receptor (Homo sapiens, UniProt P43119); test: [3H]iloprost competition binding to membranes of pcDNAIamp-hIP transfected COS-M6 cells; details: for competition for [3H]iloprost specific binding to the hIP receptor: at a concentration of 30 μM; for IC50: read-out: IC50, competition for [3H]iloprost specific binding, 4 nM [3H]iloprost, COS-M6 membranes, pH 6.0, 45 min at 30° C.
T1 construct: A DNA molecule encoding the full length IP protein has been isolated and purified; expressed in transfected cells; host or cells: COS-M6 cells (membrane fraction), pcDNAIamp-hIP, DEAE-dextran transfection

IP receptor (hIP cDNA) = target: T2, IP receptor (hIP cDNA) (Homo sapiens, UniProt P43119); test: CFTR-mediated Cl- current in Xenopus oocytes co-injected with pcDNAIamp-IP and pcDNAIamp-CFTR (voltage clamp); format: cell-based; details: oocyte clamped at -60 mV, 48 h after injection
T2 construct: A DNA molecule encoding the full length IP protein has been isolated and purified; expressed in transfected cells; host or cells: Xenopus laevis oocytes, nuclear injection of pcDNAIamp-IP plus pcDNAIamp-CFTR
Experimental: FIG. 5A and 5B —Expression of the prostaglandin 12 receptor in IP cDNA-injected Xenopus oocytes is shown.
(§1) The voltage-clamp experiments shown here were performed 48 hr after nuclear injection and are representative of 6 separate experiments with oocytes from 3 different frogs.
(§2) Oocytes were taken from adult females of Xenopus laevis using standard surgical procedure (Colman, A., 1984 In: Transcription and Translation—A Practical Approach, IRL Press). To remove follicle cells, oocytes were treated for 2-3 h with freshly made collagenase (2 mg/ml, type 2, Worthington Biochemical Corp., Freehold, N.J.) in Ca^2+-free ND96 solution (ND96 in mM: NaCl 96, KCl 2, MgCl2 1, HEPES 5, Na-pyruvate 2.5, theophylline 0.5, gentamicin […], +1.8 CaCl2, pH 7.6). Defolliculated stage 5-6 oocytes were selected and maintained in ND96 solution. Oocyte nuclei were injected with 1.6 ng of pcDNAlamp-IP plus 2.5 ng of pcDNAIamp-CFTR and then incubated at 18° C. for 48 h before challenge with agonist. CFTR (cystic fibrosis transmembrane regulator, a cAMP dependent Cl^− channel) was co-expressed with IP receptor in these oocytes and served as a reporter of changes in intracellular cAMP levels. Functional activity was determined by measurement of Iloprost-induced CFTR-mediated Cl^− current. An oocyte was placed in a 0.5 ml perfusion chamber and voltage clamped at −60 mV (with microelectrodes of 0.5-2.0 MW resistance filled with 3 M KCl) using a Turbo TEC 01C amplifier (NPl Instruments, Germany). Ligand-containing solution was perfused and the current response was recorded.
(§3) This rank order of potency is consistent with that reported for the IP receptor [Coleman, et al., 1990. Comprehensive Medicinal Chemistry (Hansch, C., Sammes, P. G., Taylor, J. B., and Emmett, J. C., Eds) Vol. 3, pp. 643-714, Pergamon, Press, Oxford].

[2] = test system: endogenous IP receptors in oocytes; test: Control oocytes injected with CFTR cDNA alone (voltage clamp); format: cell-based, Xenopus laevis; details: 100 nM
Experimental: The broken line represents the zero current level.
as §1, §2, §3

T2 sequence (P43119 whole entry): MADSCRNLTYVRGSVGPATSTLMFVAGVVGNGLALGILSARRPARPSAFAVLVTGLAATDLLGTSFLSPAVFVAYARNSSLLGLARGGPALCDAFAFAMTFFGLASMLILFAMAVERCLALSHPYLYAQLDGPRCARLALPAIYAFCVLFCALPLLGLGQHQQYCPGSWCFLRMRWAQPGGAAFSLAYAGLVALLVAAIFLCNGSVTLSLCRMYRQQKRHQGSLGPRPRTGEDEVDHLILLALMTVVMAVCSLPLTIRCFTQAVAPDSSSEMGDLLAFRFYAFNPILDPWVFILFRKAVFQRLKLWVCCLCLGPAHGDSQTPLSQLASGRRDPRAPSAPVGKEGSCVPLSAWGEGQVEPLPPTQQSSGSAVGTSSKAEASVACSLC
T1 sequence (P43119 whole entry): as above

Compound	competition for [3H]iloprost specific binding to the hIP receptor [1]	CFTR-mediated Cl- current response (IP receptor (hIP cDNA); 100 nM)	current response in control (CFTR alone injected) oocytes [2]	IC50 [1] [µM]	CFTR-mediated Cl- current response (IP receptor (hIP cDNA); perfusion of 1-100 nM)
CCCCC[C@H](O)/C=C/[C@H]1C(=O)C[C@H](O)[C@@H]1C/C=C\CCCC(=O)O [PGD2]	essentially inactive	not detectable	no responses	–	–
CCCCC[C@H](O)/C=C/[C@H]1[C@H](O)CC(=O)[C@@H]1C/C=C\CCCC(=O)O [PGE2]	–	not detectable	no responses	~10	–
CCCCC[C@H](O)/C=C/[C@@H]1[C@@H](C/C=C\CCCC(=O)O)[C@@H](O)C[C@H]1O [PGF2α]	–	–	–	~10	–
CCCCC[C@H](O)/C=C/[C@@H]1[C@@H](C/C=C\CCCC(=O)O)[C@H]2CO[C@@H]1C2 [U46619]	essentially inactive	–	–	–	–
CC#CCC(C)[C@H](O)/C=C/[C@@H]1[C@H]2C/C(=C/CCCC(=O)O)C[C@H]2C[C@H]1O (stereo partly shown) [iloprost]	–	–	no responses	–	prominent current responses
